The record followed here is US20040156851A1, “HMGB1 combination therapies” (Critical Therapeutics, Inc., priority 2002, published 2004).

For experiment [1], the target named is RAGE on RAW 264.7 cells (mouse (murine RAW 264.7 cells)) (UniProt Q62151). The experiment can be described thus: cell-based or functional assay.
For experiment [2], the target named is Recombinant full length human HMGB1 (wild type HMGB1) (human). The experiment can be described thus: cell-based or functional assay.
A further experiment deals with RAW 264.7 cells. Kind of experiment: TNF release from RAW 264.7 cells stimulated with HMGB1, mutants or B box peptides (L929 cytotoxicity bioassay). Type of experiment: cell-based, murine. The note with it: for TNF release by synthetic B box peptide fragments: synthetic peptide 10 μg/ml, 10 hours (FIG. 3). As to the method:
Murine macrophage-like RAW 264.7 cells (American Type Culture Collection, Rockville, Md.) were cultured in RPMI 1640 medium (Life Technologies, Grand Island, N.Y.) supplemented with 10% fetal bovine serum (Gemini, Catabasas, Calif.), penicillin and streptomycin (Life Technologies) and were used at 90% confluence in serum-free Opti-MEM I medium (Life Technologies, Grand Island, N.Y.). […] Polymyxin B was not used in experiments of synthetic peptide studies.
TNF release was measured by a standard murine fibroblast L929 (ATCC, American Type Culture Collection, Rockville, Md.) cytotoxicity bioassay (Bianchi et al., Journal of Experimental Medicine 183:927-936, 1996) with the minimum detectable concentration of 30 pg/ml. Recombinant mouse TNF was obtained from R&D system Inc., (Minneapolis, Minn.). Murine fibroblast L929 cells (ATCC) were cultured in DMEM (Life Technologies, Grand Island, N.Y.) supplemented with 10% fetal bovine serum (Gemini, Catabasas, Calif.), penicillin (50 units/ml) and streptomycin (50 μg/ml) (Life Technologies) in a humidified incubator with 5% CO2.
The effect of the mutants on TNF release from Murine macrophage-like RAW 264.7 cells (ATCC) was carried out as follows. RAW 264.7 cells were cultured in RPMI 1640 medium (Life Technologies, Grand Island, N.Y.) supplemented with 10% fetal bovine serum (Gemini, Catabasas, Calif.), penicillin and streptomycin (Life Technologies). Polymyxin (Sigma, St. Louis, Mo.) was added at 100 units/ml to suppress the activity of any contaminating LPS. Cells were incubated with 1 μg/ml of full length (wild-type) HMGB1 and each HMGB1 mutant protein in Opti-MEM I medium for 8 hours. Conditioned supernatants (containing TNF which had been released from the cells) were collected and TNF released from the cells was measured by a standard murine fibroblast L929 (ATCC) cytotoxicity bioassay (Bianchi et al., supra) with the minimum detectable concentration of 30 pg/ml. Recombinant mouse TNF was obtained from R & D Systems Inc., (Minneapolis, Minn.) and used as control in these experiments. Data in FIG. 1 are all presented as mean±SEM unless otherwise indicated. (N=6−10).
To further examine the effect of HMGB1 B box on cytokine production, varying amounts of HMGB1 B box were evaluated for the effects on TNF, IL-1B, and IL-6 production in murine macrophage-like RAW 264.7 cells. Conditioned media were harvested and measured for TNF, IL-1β and IL-6 levels. TNF levels were measured as described herein, and IL-1β and IL-6 levels were measured using the mouse IL-1β and IL-6 enzyme-linked immunosorbent assay (ELISA) kits (R&D System Inc., Minneapolis, Minn.) and N>5 for all experiments.
The kinetics of B box-induced TNF release were also examined. TNF release and TNF mRNA expression were measured in RAW 264.7 cells induced by B box polypeptide or GST tag polypeptide only (used as a control (vector)) (10 μg/ml) for 0 to 48 hours. Supernatants were analyzed for TNF protein levels by an L929 cytotoxicity assay (N=3-5) as described herein. For mRNA measurement, cells were plated in 100 mm plates and treated in Opti-MEM I medium containing B box polypeptide or the vector alone for 0, 4, 8, or 24 hours, as indicated in FIG. 2D. The vector only sample was assayed at the 4 hour time point. Cells were scraped off the plate and total RNA was isolated using the RNAzol B method in accordance with the manufacturer's instructions (Tel-Test “B”, Inc., Friendswood, Tex.). TNF (287 bp) was measured by RNase protection assay (Ambion, Austin, Tex.). Equal loading and the integrity of RNA was verified by ethidium bromide staining of the RNA sample on an agarose-formaldehyde gel. […] TNF mRNA expression was maximal at 4 hours and decreased at 8 and 24 hours. […] A similar study was carried out measuring TNF protein released from RAW 264.7 cells 0, 4, 8, 24, 32 or 48 hours after administration of B box or vector only (GST tag), using the L929 cytotoxicity assay described herein. […]

Experiment [3] relates to Balb/c mice subjected to CLP. Kind of experiment: Cecal ligation and puncture (CLP) sepsis, survival of Balb/c mice. The experiment is classed as in vivo. As to the method: Cecal ligation and puncture (CLP) was performed as described previously (Fink and Heard, J. Surg. Res. 49:186-196, 1990; Wichmann et al., Crit. Care Med. 26:2078-2086, 1998; and Remick et al., Shock 4:89-95, 1995). Briefly, Balb/c mice were anesthetized with 75 mg/kg ketamine (Fort Dodge, Fort Dodge, Iowa) and 20 mg/kg of xylazine (Bohringer Ingelheim, St. Joseph, Mo.) intramuscularly. A midline incision was performed, and the cecum was isolated. A 6-0 prolene suture ligature was placed at a level 5.0 mm from the cecal tip away from the ileocecal valve.
The ligated cecal stump was then punctured once with a 22-gauge needle, without direct extrusion of stool. The cecum was then placed back into its normal intra-abdominal position. […] Mortality was recorded for up to 1 week after the procedure; survivors were followed for 2 weeks to ensure no late mortalities had occurred.
To determine whether the HMGB1 A box can inhibit the lethality of HMGB1 during sepsis, mice were subjected to cecal perforation and treated by administration of A box beginning 24 hours after the onset of sepsis. […] Survival was monitored twice daily for up to 2 weeks to ensure no late death occurred. […]
Passive immunization of critically ill septic mice with anti-HMGB1 antibodies was also assessed. […] Survival was monitored for 2 weeks. […]

Experiment [4] concerns HMGB1 induced TNF release. The experiment can be described thus: A box inhibition of HMGB1 induced TNF release from RAW 264.7 cells. Type of experiment: cell-based, murine. Particulars: co-addition with HMGB1, 16 hours, TNF ELISA (FIG. 4B). As to the method:
Weak agonists are by definition antagonists. […] This study was carried out as follows. Sub-confluent RAW 264.7 cells in 24-well dishes were treated with HMGB1 (1 μg/ml) and 0, 5, 10, or 25 μg/ml of A box for 16 hours in Opti-MEM I medium in the presence of polymyxin B (100 units/ml). The TNF-stimulating activity (assayed using the L929 cytotoxicity assay described herein) in the sample receiving no A box was expressed as 100%, and the inhibition by A box was expressed as percent of HMGB1 alone. […] Data in FIG. 4A are presented as mean±SD (n=2-3 independent experiments).
Antagonism of full length HMGB1 activity by HMGB1 A box or GST tag (vector control) was also determined by measuring TNF release from RAW 264.7 macrophage cultures stimulated by co-addition of A box with full length HMGB1. RAW 264.7 macrophage cells (ATCC) were seeded into 24-well tissue culture plates and used at 90% confluence. The cells were treated with HMGB1, and/or A boxes as indicated for 16 hours in Optimum I medium (Life Technologies, Grand Island, N.Y.) in the presence of polymyxin B (100 units/ml, Sigma, St. Louis, Mo.) and supernatants were collected for TNF measurement (mouse ELISA kit from R&D System Inc, Minneapolis, Minn.). TNF-inducing activity was expressed as a percentage of the activity achieved with HMGB1 alone. […]
For orientation: In an ELISA, binding on a coated surface is turned into a signal by an enzyme label.

Chain of RAGE on RAW 264.7 cells (mouse (murine RAW 264.7 cells)) (Q62151 23-402): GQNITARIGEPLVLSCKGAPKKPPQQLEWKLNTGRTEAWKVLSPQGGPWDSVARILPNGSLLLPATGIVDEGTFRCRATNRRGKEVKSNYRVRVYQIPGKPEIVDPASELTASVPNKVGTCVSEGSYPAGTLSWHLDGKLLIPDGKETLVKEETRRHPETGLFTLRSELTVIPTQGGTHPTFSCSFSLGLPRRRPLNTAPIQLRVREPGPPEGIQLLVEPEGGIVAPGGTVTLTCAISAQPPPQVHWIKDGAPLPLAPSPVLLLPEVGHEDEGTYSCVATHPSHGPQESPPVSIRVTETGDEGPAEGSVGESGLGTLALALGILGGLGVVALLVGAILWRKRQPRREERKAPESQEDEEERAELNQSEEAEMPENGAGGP

“Recombinant full length human HMGB1 (wild type HMGB1) (from UniProt A9RA84 1-215) (ligand)” gave a decrease of HMGB1 (1 µg/ml) induced TNF release from RAW 264.7 cells by anti-RAGE antibody (25 µg/ml) in experiment [1] of 40%.

As to “HMGB1 Amino terminus+A box mutant (human HMGB1 A box polypeptide) (from UniProt A9RA84 1-85)”, the inhibition of HMGB1 (1 µg/ml) induced TNF release from RAW 264.7 cells, L929 cytotoxicity assay in experiment [2] stood at 7.5 µg/mL.

As to “16-25: Synthetic peptide fragment containing amino acids 16-25 of the HMGB1 B box (SEQ ID NO:20) (LFCSEYRPKI; listed as Homo sapiens)”, in the experiment on RAW 264.7 cells, the “TNF release by synthetic B box peptide fragments” value is “did not induce TNF release”.

Consider “45-64: Synthetic peptide fragment containing amino acids 45-64 of the HMGB1 B box (SEQ ID NO:20) (WNNTAADDKQPYEKKAAKLK; listed as Homo sapiens)”, for which the “TNF release by synthetic B box peptide fragments” value in the experiment on RAW 264.7 cells is “did not induce TNF release”.

In the case of “30-49: Synthetic peptide fragment containing amino acids 30-49 of the HMGB1 B box (SEQ ID NO:20) (PGLSIGDVAKKLGEMWNNTA; listed as Homo sapiens)”, the “TNF release by synthetic B box peptide fragments” value with RAW 264.7 cells is given as “did not induce TNF release”.

In the case of “fkdpnapkrlpsafflfcse (FKDPNAPKRLPSAFFLFCSE; listed as Homo sapiens) [1-20-mer]”, in the experiment with RAW 264.7 cells (peptide 10 μg/ml vs B box 1 μg/ml, 10 hours), the “TNF stimulating potency compared with full length B box and HMGB1” value is “less potent than either the full length synthetic B box (1-74-mer), or full length HMGB1”. The “TNF release by synthetic B box peptide fragments” value in the experiment on RAW 264.7 cells is “TNF-stimulating activity was retained”.

Turning to “60-74: Synthetic peptide fragment containing amino acids 60-74 of the HMGB1 B box (SEQ ID NO:20) (AAKLKEKYEKDIAAY; listed as Homo sapiens)”, in the experiment with RAW 264.7 cells, the “TNF release by synthetic B box peptide fragments” value is on record as “did not induce TNF release”.

B1: A box: Human HMGB1 mutant containing only the A box, SEQ ID NO:21 (A box SEQ ID NO:22) (protein, listed as Homo sapiens)
chain: MGKGDPKKPTGKMSSYAFFVQTCREEHKKKHPDASVNFSEFSKKCSERWKTMSAKEKGKFEDMAKADKARYEREMKTYIPPKGET
As to B1, the outcome of animals in experiment [3] (60 μg/mouse) is given as “most died”. Besides, in experiment [3] (600 μg/mouse, vs vector controls or 60 μg), the “clinical behaviour of animals” value was “significantly more alert, active, and to resume feeding behavior”. Also, the “effect on TNF stimulating activity of full length HMGB1” value in experiment [4] is listed as “significantly attenuated the TNF stimulating activity of full length HMGB1”.
